Settings: pH 3
Text: Finding suitable candidates for a cosolvent universal buffer solution was problematic, since cosolvents change the pKas of the buffer components, and it is difficult to predict accurately to what extent the pKas would be different.

SMILES: O=S(=O)(O)CCN1CCN(CCO)CC1 [HEPES, 4-(2-hydroxyethyl)-1-piperazineethanesulfonic acid]
- pKa (I = 0.020M): 7.48

From US6569686B2, “Measurement of solubility-pH profiles” (Pion, Inc., priority 2000, dated 2003)
